Laboratory results published in US20060009918A1, “Methods and materials for enhancing the effects of protein modulators” (priority 2004, published 2006).

Biological target: T1, carbonic anhydrase (bovine erythrocyte, Sigma Chemical Company, mixture of isozymes) (Bos taurus, UniProt P00921)
T1 construct: purchased Sigma Chemical Company; host or cells: bovine erythrocyte
Test: Binding constants by isothermal titration calorimetry
Protocol: The binding constants of these complexes with carbonic anhydrase (bovine erythrocyte, Sigma Chemical Company, mixture of isozymes) were determined employing isothermal titration calorimetry (25 mM HEPES buffer, pH=7.0), and the results are presented in Table 1.
The titration procedures employing isothermal titration calorimetry were carried out employing the instrument ITC-4200 (Calscorp Inc., Provo, Utah). The reference cell (volume: 1.32 mL) was filled with 25 mM HEPES buffer, pH=7.0. Carbonic anhydrase was taken in the sample cell (1.32 mL, […] protein in 25 mM HEPES buffer, pH=7.0). The copper complexes (1 mM) were dissolved in the same buffer and were added to the enzyme solution (42×5 μL injections). Heats of dilution for the complexes were separately determined by injecting the solution of the complexes in buffer (taken in the sample cell). The heats of dilution were subtracted from the titration data files, and the resultant data were processed by the software provided by the manufacturer (Bind Works 3.0).

[1] = isothermal titration calorimetry, 25 mM HEPES buffer, pH=7.0

T1 sequence (P00921 2-260 limits assumed): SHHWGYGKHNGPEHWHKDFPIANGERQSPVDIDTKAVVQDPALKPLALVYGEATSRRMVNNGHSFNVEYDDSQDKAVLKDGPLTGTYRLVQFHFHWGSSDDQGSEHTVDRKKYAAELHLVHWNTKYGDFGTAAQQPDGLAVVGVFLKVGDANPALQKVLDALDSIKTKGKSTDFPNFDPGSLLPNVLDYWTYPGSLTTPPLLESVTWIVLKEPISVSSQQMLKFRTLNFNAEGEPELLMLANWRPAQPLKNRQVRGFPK

For `NS(=O)(=O)c1ccccc1` [Control 6, Benzene sulfonamide, reference compound], which Kd (carbonic anhydrase, summary statement) is on record?
Its Kd is 120 µM.

And the Binding constant [1]?
The Binding constant was “(9.0 ± 0.1) × 10^3”.

And the Enthalpy [1]?
The Enthalpy was -31.2 ± 1.6 kcal/mol.

What about the “affinity for the enzyme (in words)” value (titration with the enzyme) of the same compound?
Its value is “weak affinity”.
